Assay [1] has as its system Pseudomonas aeruginosa. The assay is described as follows: Antibiofilm activity against Pseudomonas aeruginosa PAO1 assessed as inhibition of biofilm formation incubated for 24 hrs by crystal violet staining based assay. Conditions: PAO1, 24 h. Type of assay: functional, organism-based.
Another assay deals with Escherichia coli. The assay is described as follows: Antibacterial activity against Escherichia coli. Type of assay: functional.
For assay [2], the system named is Pseudomonas aeruginosa. The assay is described as follows: Antibacterial activity against Pseudomonas aeruginosa. It is filed as functional.
Assay [3] has as its system Staphylococcus aureus. The assay is described as follows: Antibacterial activity against Methicillin-sensitive Staphylococcus aureus. Type of assay: functional.
The test system of a further assay is Bacillus subtilis. The assay is described as follows: Antibacterial activity against Bacillus subtilis. Type of assay: functional.
Assay [4] relates to Staphylococcus aureus. The assay is described as follows: Antibacterial activity against Methicillin-resistant Staphylococcus aureus. Type of assay: functional.
A further assay concerns Bacillus pumilus. The assay is described as follows: Antibacterial activity against Bacillus pumilus. Type of assay: functional.
Assay [5] concerns Pseudomonas aeruginosa. The assay is described as follows: Antibacterial activity against Pseudomonas aeruginosa PAO1 assessed as reduction in bacterial growth by broth microdilution method. Type of assay: functional, organism-based. On the technique in general: In broth dilution the organism is exposed to a series of concentrations in liquid medium.
Assay [6] has as its system Pseudomonas aeruginosa. The assay is described as follows: Antivirulence activity against Pseudomonas aeruginosa PAO1 assessed as reduction in pyocyanin level at 10 uM relative to control. It is filed as functional. The arrangement: scale not given: the % may be the effect or the level left.
For assay [7], the system named is Pseudomonas aeruginosa. The assay is described as follows: Anti-virulence effect in Pseudomonas aeruginosa PAO1 assessed as inhibition of rhamnolipid production at 10 uM relative to control. Type of assay: functional. On the set-up: scale not given: the % may be the effect or the level left.
The test system of assay [8] is Pseudomonas aeruginosa. The assay is described as follows: Antimicrobial activity against Pseudomonas aeruginosa PAO1 assessed as inhibition of bacterial growth measured for 18 hrs by CLSI-based broth microdilution method. It is filed as functional.
Assay [9] concerns Pseudomonas aeruginosa. The assay is described as follows: Antibiofilm activity against Pseudomonas aeruginosa ATCC 27853 assessed as reduction in biofilm biomass at 16 ug/ml relative to control. Type of assay: functional. The arrangement: scale not given: the % may be the effect or the level left. Conditions: dose 16 µg/ml.
Assay [10] concerns Pseudomonas aeruginosa. The assay is described as follows: Antimicrobial activity against Pseudomonas aeruginosa assessed as reduction in microbial growth. It is filed as functional, organism-based.
In assay [11] the test system is Pseudomonas aeruginosa. The assay is described as follows: Antibiofilm activity against Pseudomonas aeruginosa PAO1 assessed as inhibition of biofilm formation at 100 uM relative to control. Type of assay: functional. The arrangement: scale not given: the % may be the effect or the level left.

The IC50 is the midpoint of a concentration-inhibition curve. Usually MIC stands for the smallest concentration in the dilution series that meets the test's criterion for growth inhibition.

Converted amounts (≈) assume the structure as drawn.

`CCn1ccnc1`: the IC50 in the assay on Pseudomonas aeruginosa [1] was determined as 0.4 µM.
On the same count and under the same terms, then `CCCCCCCn1ccnc1`, with 3.29 µM.
As for `O=C(CCCCCOc1ccc([N+](=O)[O-])cc1)NNC(=O)Cn1c(=O)oc2ncccc21`, the MIC against Escherichia coli, in the assay on Pseudomonas aeruginosa [2], against Staphylococcus aureus [3], with Bacillus subtilis, against Staphylococcus aureus [4] and in the assay with Bacillus pumilus was greater than 512 µg/mL in each case.
For `O=C(CN[C@H]1CCOC1=O)Nc1ccc(C/C=C/c2ccccc2)cc1`, the minimum inhibitory concentration (MIC) in the assay with Pseudomonas aeruginosa [5] came to 5 µM (≈ 1.75 µg/mL).
As to `COc1ccc(OCCCCCCCC(=O)NNC(=O)Cn2c(=O)oc3ncccc32)cc1`, the MIC with Escherichia coli, in the assay with Pseudomonas aeruginosa [2], against Staphylococcus aureus [3], against Bacillus subtilis, against Staphylococcus aureus [4] and against Bacillus pumilus was greater than 512 µg/mL in each case. Further, the figures for the Activity in the assay with Pseudomonas aeruginosa [6] and in the assay on Pseudomonas aeruginosa [7] were 53.1% and 6.34%, respectively.
Consider `O=C(CCCCCOc1ccc(C(F)(F)F)cc1)NNC(=O)Cn1c(=O)oc2ncccc21`, for which the MIC against Escherichia coli, with Pseudomonas aeruginosa [2], against Staphylococcus aureus [3], in the assay with Bacillus subtilis, in the assay on Staphylococcus aureus [4] and against Bacillus pumilus was greater than 512 µg/mL throughout. The Activity in the assay on Pseudomonas aeruginosa [6] was 53.1%.
As for `O=c1cc(-c2ccc(O)cc2)oc2cc(O)cc(O)c12` [APIGENIN], in the assay on Pseudomonas aeruginosa [8], the minimal inhibitory concentration (MIC) is 0.48 µg/mL (≈ 1.78 µM).
For the compound `COc1ccc(/C=C/C(=O)O)cc1OC`, the Activity with Pseudomonas aeruginosa [9] is listed as 15.79%.
In the case of `COP(=O)(NCCCCOc1cc(O)c2c(=O)cc(-c3ccccc3)oc2c1)OC`, in the assay with Pseudomonas aeruginosa [10], the concentration for half-maximal inhibition (IC50) stood at 100 µM.
On the same count and under the same terms, then `CC(C)OP(=O)(NCCCCOc1cc(O)c2c(=O)cc(-c3ccccc3)oc2c1)OC(C)C`, with 100 µM.
As for `COc1ccc(OCCCCCCC(=O)NNC(=O)Cn2c(=O)oc3ncccc32)cc1`, the MIC against Escherichia coli, with Pseudomonas aeruginosa [2], in the assay with Staphylococcus aureus [3], in the assay on Bacillus subtilis, against Staphylococcus aureus [4] and with Bacillus pumilus was greater than 512 µg/mL each time. Besides, the Activity with Pseudomonas aeruginosa [7] is 6.34%.
Take `O=C(CN[C@H]1CCOC1=O)Nc1ccc(C/C=C/c2ccc(Cl)c(Cl)c2)cc1`: in the assay with Pseudomonas aeruginosa [5], the MIC was determined as 5 µM (≈ 2.1 µg/mL).
In the case of `O=c1c(-c2ccc(O)cc2)coc2cc(O)ccc12` [DAIDZEIN], the minimal inhibitory concentration (MIC) in the assay on Pseudomonas aeruginosa [8] was 45 µg/mL (≈ 177 µM).
Turning to `O=C(O)CCc1ccc(O)c(O)c1` [DIHYDROCAFFEIC ACID], the Activity in the assay with Pseudomonas aeruginosa [9] stood at 19.82%.
On to `COc1ccc(OCCCCC(=O)NNC(=O)Cn2c(=O)oc3ncccc32)cc1`, for which the MIC against Escherichia coli, in the assay with Pseudomonas aeruginosa [2], against Staphylococcus aureus [3], against Bacillus subtilis, in the assay with Staphylococcus aureus [4] and in the assay with Bacillus pumilus was greater than 512 µg/mL each time.
Turning to `O=C1O/C(=C\Br)C=C1Br`, in the assay on Pseudomonas aeruginosa [5], the half-inhibitory concentration (IC50) turned out to be 17.4 µM.
With `O=C(CCCCCOc1ccc(Cl)cc1)NNC(=O)Cn1c(=O)oc2ncccc21`, the MIC in the assay on Escherichia coli, against Pseudomonas aeruginosa [2], in the assay with Staphylococcus aureus [3], against Bacillus subtilis, against Staphylococcus aureus [4] and in the assay on Bacillus pumilus was greater than 512 µg/mL each time.
Turning to `O=C(COc1ccc(C(=O)/C=C/c2ccccc2Cl)cc1)N[C@H]1CCOC1=O`, in the assay on Pseudomonas aeruginosa [5], the minimum inhibitory concentration (MIC) was 5 µM (≈ 2 µg/mL).
Consider `O=C(O)/C=C/c1ccc(O)c(O)c1` [CAFFEIC ACID], for which, in the assay on Pseudomonas aeruginosa [9], the Activity turned out to be 33%.
Same read-out and setting: then `O=C(/C=C/c1ccc(O)c(O)c1)OCCc1ccc(Cl)cc1`, with 30.41%.
Take `O=C(CNc1ccc(C(=O)/C=C/c2ccc(-c3ccccc3)cc2)cc1)N[C@@H]1CCOC1=O`: the minimum inhibitory concentration (MIC) in the assay on Pseudomonas aeruginosa [5] was 5 µM (≈ 2.2 µg/mL).
Same read-out and setting: the same measure for `CC(C)c1ccc(/C=C/C(=O)c2ccc(NCC(=O)N[C@@H]3CCOC3=O)cc2)cc1`: 5 µM (≈ 2.03 µg/mL).
Consider `O=c1c(-c2ccc(O)cc2)coc2cc(O)cc(O)c12` [GENISTEIN], for which the MIC in the assay with Pseudomonas aeruginosa [8] is 0.48 µg/mL (≈ 1.78 µM).
Turning to `Cc1ccc(CCOC(=O)/C=C/c2ccc(O)c(O)c2)cc1`, the Activity in the assay on Pseudomonas aeruginosa [9] was 22.67%.
Consider `COc1ccc(-c2coc3cc(O)cc(O)c3c2=O)cc1` [BIOCHANIN], for which the minimum inhibitory concentration (MIC) with Pseudomonas aeruginosa [8] stood at 0.48 µg/mL (≈ 1.69 µM).
As for `O=c1c(O[C@@H]2O[C@H](CO)[C@H](O)[C@H](O)[C@H]2O)c(-c2ccc(O)c(O)c2)oc2cc(O)cc(O)c12` [HYPEROSIDE], the Activity in the assay on Pseudomonas aeruginosa [11] was found to be 18%.

The record behind these values is ChEMBL document CHEMBL6153025, “Multidrug-resistant bacteria quorum-sensing inhibitors: A particular focus on Pseudomonasaeruginosa” (Eur J Med Chem, 2025).
